# Test results published in patent US7625507B2, “Extrusion process for forming chemically stable drug multiparticulates” (Pfizer Inc., priority 2003, dated 2009).
# Experiment: Lability of drug held in molten mixture for 60 minutes
# Type: physicochemical
# Conditions: 50 wt % azithromycin dihydrate
# Experimental: The multiparticulates formed by the process of the present invention comprise a labile drug and a carrier. As used herein the term “labile” refers to drugs that degrade by at least 0.01 wt % when held in a molten mixture of drug, carrier and optional excipient(s) for 60 minutes. Details on carriers and optional excipients are discussed below. The term “drug” as used herein includes, by way of example and not of limitation, any physiologically or pharmacologically active substance that produces a localized or systemic effect in animals. The term “animals” includes mammals, particularly humans, as well as other animals.
# Labile drugs may be identified experimentally by determining whether the drug chemically reacts or degrades when held in the molten mixture of drug, carrier and optional excipients for 60 minutes. In general, drug degradation may be measured using any conventional method for measuring the purity or potency of drug in a pharmaceutical composition. For example, the purity or potency of the drug substance prior to formation of the molten mixture may be measured using high-performance liquid chromatography (HPLC) or other analytical techniques well known in the art. […] The purity or potency of the drug after being in the molten mixture for 60 minutes is then determined. […]
compound,measurement,setting,value
"CC[C@H]1OC(=O)[C@H](C)[C@@H](O[C@H]2C[C@@](C)(OC)[C@@H](O)[C@H](C)O2)[C@H](C)[C@@H](O[C@@H]2O[C@H](C)C[C@H](N(C)C)[C@H]2O)[C@](C)(O)C[C@@H](C)CN(C)[C@H](C)[C@@H](O)[C@]1(C)O [azithromycin, 9a-aza-9a-methyl-9-deoxo-9a-homoerythromycin A]",lability in molten mixture,"47 wt % COMPRITOL 888 ATO, 3 wt % LUTROL F127 at 90° C. for 60 minutes",labile
same,lability in molten mixture,"48 wt % microcrystalline wax, 2 wt % LUTROL F127, held 60 minutes",not labile
